According to PubChem BioAssay AID1845195 (Molecular Pharmacology Branch, DTP, NCI, 2023):

System: 156681-154-R-J1 tumor spheroid viability
Assay: Anticancer human tumor 156681-154-R-J1 patient-derived melanoma cell line growth inhibition
Conditions: spheroids with HUVEC and MSC; for IC50: curve of first compound; for viability, T/C: stronger effect = lower value
Procedure, shortened: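 Single agents and combinations were tested on spheroids built from tumor cells plus HUVEC and hMSC, at half-log dilutions starting at or near clinical Cmax, else 10 microM; final DMSO 0.25% (v/v).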

[1] = second compound 1 µM, first compound 0.0316 µM
[2] = second compound 1 µM, first compound 0.1 µM
[3] = second compound 1 µM, first compound 0.316 µM
[4] = second compound 1 µM, first compound 1 µM
[5] = second compound 1 µM, first compound 3.16 µM
[6] = second compound 1 µM, first compound 10 µM
[7] = second compound 3.16 µM, first compound 0.0316 µM
[8] = second compound 3.16 µM, first compound 0.1 µM
[9] = second compound 3.16 µM, first compound 0.316 µM
[10] = second compound 3.16 µM, first compound 1 µM
[11] = second compound 3.16 µM, first compound 3.16 µM
[12] = second compound 3.16 µM, first compound 10 µM
[13] = second compound 10 µM, first compound 0.0316 µM
[14] = second compound 10 µM, first compound 0.1 µM
[15] = second compound 10 µM, first compound 0.316 µM
[16] = second compound 10 µM, first compound 1 µM
[17] = second compound 10 µM, first compound 3.16 µM
[18] = second compound 10 µM, first compound 10 µM
[19] = second compound 31.6 µM, first compound 0.0316 µM
[20] = second compound 31.6 µM, first compound 0.1 µM
[21] = second compound 31.6 µM, first compound 0.316 µM
[22] = second compound 31.6 µM, first compound 1 µM
[23] = second compound 31.6 µM, first compound 3.16 µM
[24] = second compound 31.6 µM, first compound 10 µM
[25] = second compound 100 µM, first compound 0.0316 µM
[26] = second compound 100 µM, first compound 0.1 µM
[27] = second compound 100 µM, first compound 0.316 µM
[28] = second compound 100 µM, first compound 1 µM
[29] = second compound 100 µM, first compound 3.16 µM
[30] = second compound 100 µM, first compound 10 µM
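Also: spheroids exposed to compounds for 7 days before readout.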
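For viability, T/C in this document: percent of vehicle control viability where 100% = DMSO-treated spheroids.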

| SMILES | IC50 (second compound 1 µM) [µM] | IC50 (second compound 3.16 µM) [µM] | IC50 (second compound 10 µM) [µM] | IC50 (second compound 31.6 µM) [µM] | IC50 (second compound 100 µM) [µM] | viability, T/C [1] [%] | viability, T/C [2] [%] | viability, T/C [3] [%] | viability, T/C [4] [%] | viability, T/C [5] [%] | viability, T/C [6] [%] | viability, T/C [7] [%] | viability, T/C [8] [%] | viability, T/C [9] [%] | viability, T/C [10] [%] | viability, T/C [11] [%] | viability, T/C [12] [%] | viability, T/C [13] [%] | viability, T/C [14] [%] | viability, T/C [15] [%] | also measured |
| --- | --- | --- | --- | --- | --- | --- | --- | --- | --- | --- | --- | --- | --- | --- | --- | --- | --- | --- | --- | --- | --- |
| Cc1cc(C)c(CNC(=O)c2cc(-c3ccc(CN4CCOCC4)cc3)cc3c2cnn3C2CCCC2)c(=O)[nH]1 + Cn1nnc2c(C(N)=O)ncn2c1=O | > 10 | > 10 | > 10 | > 10 | > 10 | 72.6 | 107 | 90.2 | 92.4 | 79.6 | 82.4 | 90.6 | 72.7 | 83.7 | 87.2 | 68.8 | 84.4 | 105 | 73.3 | 72.4 | viability, T/C [16]: 67.1%; viability, T/C [17]: 69.2%; viability, T/C [18]: 77.5%; viability, T/C [19]: 74.2%; viability, T/C [20]: 65.7%; viability, T/C [21]: 50.5%; viability, T/C [22]: 63%; viability, T/C [23]: 51.9%; viability, T/C [24]: 58.4%; viability, T/C [25]: 51.2%; viability, T/C [26]: 61.9%; viability, T/C [27]: 67.2%; viability, T/C [28]: 52.3%; viability, T/C [29]: 56%; viability, T/C [30]: 55.6% |
| COc1cc(C)[nH]c(=O)c1CN1CCc2c(Cl)cc(C(OC)C3COC3)c(Cl)c2C1=O (stereo not given) + Cn1nnc2c(C(N)=O)ncn2c1=O | > 10 | > 10 | > 10 | > 10 | > 10 | 115 | 103 | 116 | 115 | 81.2 | 88.5 | 107 | 144 | 90.7 | 74.9 | 127 | 130 | 84.5 | 81 | 77.7 | viability, T/C [16]: 75.2%; viability, T/C [17]: 98.7%; viability, T/C [18]: 67%; viability, T/C [19]: 70.2%; viability, T/C [20]: 56.7%; viability, T/C [21]: 60.4%; viability, T/C [22]: 58.4%; viability, T/C [23]: 54%; viability, T/C [24]: 65.7%; viability, T/C [25]: 45%; viability, T/C [26]: 66%; viability, T/C [27]: 51.7%; viability, T/C [28]: 62.9%; viability, T/C [29]: 68.7%; viability, T/C [30]: 61.4% |
| CC(C)n1c(=O)n(C)c2cnc3cc(F)c(-c4ccc(OCCCN5CCCCC5)nc4)cc3c21 + Cn1nnc2c(C(N)=O)ncn2c1=O | > 10 | > 10 | > 10 | < 0.0316 | < 0.0316 | 116 | 122 | 110 | 104 | 108 | 95.1 | 85.2 | 83 | 111 | 123 | 98.9 | 71.4 | 78.5 | 63.5 | 70.8 | viability, T/C [16]: 72.4%; viability, T/C [17]: 75.5%; viability, T/C [18]: 64.1%; viability, T/C [19]: 47.2%; viability, T/C [20]: 54.5%; viability, T/C [21]: 53%; viability, T/C [22]: 48.3%; viability, T/C [23]: 52%; viability, T/C [24]: 55.8%; viability, T/C [25]: 51.9%; viability, T/C [26]: 43.3%; viability, T/C [27]: 46.8%; viability, T/C [28]: 48.2%; viability, T/C [29]: 49.5%; viability, T/C [30]: 43.4% |
| [2H]c1nc(C)nc([2H])c1-c1cc(NC[C@@H](C)c2cccc3c(C(=O)NC)ccnc23)ncn1 + Cn1nnc2c(C(N)=O)ncn2c1=O | > 10 | > 10 | > 10 | > 10 | 2.47 | 117 | 107 | 104 | 83.8 | 92.8 | 82.4 | 71.8 | 101 | 114 | 112 | 120 | 87.4 | 80 | 69.7 | 59.7 | viability, T/C [16]: 63.8%; viability, T/C [17]: 73.3%; viability, T/C [18]: 64.9%; viability, T/C [19]: 54.9%; viability, T/C [20]: 58.6%; viability, T/C [21]: 48.7%; viability, T/C [22]: 47.9%; viability, T/C [23]: 52%; viability, T/C [24]: 54%; viability, T/C [25]: 55.3%; viability, T/C [26]: 47.8%; viability, T/C [27]: 54.4%; viability, T/C [28]: 52.4%; viability, T/C [29]: 48.3%; viability, T/C [30]: 48.9% |
